# Assay results taken from patent US11534457B2, “Use of dextran sulfate” (priority 2017, dated 2022).
# How the values were obtained:
# [1] = test system: MBP expression in human Schwann cells; assay: Myelin basic protein (MBP) immunostaining; type: cell-based; conditions: 48 h
# Protocol: Neurons were cultured as 40,000 cells per well and Schwann cells 3,000 cells per. Cells were treated after 24 hours. The number of cells per well depended on the growth phenotype, proliferative capacity, etc.
# Schwann cells growth medium was prepared by adding 10% of fetal bovine serum (FBS, PAA) to high-glucose DMEM and pre-warmed to 37° C. Cells were thawed in a 37° C. water bath for no longer than 2 min. Cells were gently transferred to a tube containing 10 ml of medium and centrifuged at 200 RCF for 5 min. Pellet was resuspended in 5 ml of medium and cells were counted with the Cellometer. 3,000 cells per well were seeded in previously coated 96-well plates. Cells were incubated at 37° C. with 5% CO2. Cells were allowed to settle for 24 hours before drug treatment.
# LMW-DS was prepared in the culture media of choice for each cell line and added to the respective wells in the doses 0.01 and 0.1 mg/ml. For cell survival assays cells were analyzed after 24 and 48 hours in eight identical wells/dose/time point. Differentiation and protein expression assay was analyzed after 48 hours, also in octuplicates.
# Cells were fixated in the wells. […]
# The Acumen cytometer allows the direct cytometric analysis of attached cells without prior detachment. […] The protein content of the cells can also be directly measured and expressed as either ‘total protein content’ or ‘mean protein content’.
# [2] = test system: Human umbilical vein endothelial cells (HUVECs); assay: Gene expression array and pathway analysis, HUVECs; type: cell-based
# Protocol: For each cell line, n=8×25 cm^2 culture flasks were set up. Two flasks were harvested for each cell type on the day of treatment (24 hours after seeding). This represents the Day0 time point. From the remaining flasks, three flasks were treated with Control Medium and three were treated with Culture Medium (CM) containing LMW-DS to give a final concentration of 0.01 mg/ml. Cells from the treated flasks were collected after 48 hours. Therefore the collected data represent (a) untreated cells (Day0 Controls and Day2 Controls) and (b) cells treated with LMW-DS for 48 hours (Day2 LMW-DS treated).
# 25 cm^2 flasks were coated by adding 2 ml per flask of a solution of 50 μg/ml poly-d-lysine in Hank's balanced salt solution (HBSS) and incubating overnight at 37° C. in the dark. Flasks were washed with cell culture water and air-dried for 30 min in the dark. Flasks were coated by adding 1 ml per flask of a solution of 25 μg/ml laminin in phosphate-buffered saline (PBS) and incubating for 2 hour at 37° C. in the dark. The laminin flasks were washed with PBS three times before plating cells.
# Medium 200+Large Vessel Endothelial Supplement (M200+LVES) additive (1:50) was prepared and pre-warmed to 37° C. Cells were thawed in a 37° C. water bath for no longer than 2 min and gently transferred into a 50 ml tube containing 20 ml Dulbecco's Modified Eagle Medium, Nutrient Mixture F-12 (DMEM-F12). The cell suspension was mixed by inverting the tube carefully twice. Cells were spun at 400×g for 10 minutes. Supernatant removed and cells were resuspended in 10 ml of culture media (M200+LVES additive).
# Cells were counted with the Cellometer. 1,000,000 cells/flask were seeded in 25 cm^2 flasks (n=8) and medium was topped up to a total of 5 ml per flask. Cells were incubated at 37° C. with 5% CO2. Cells were allowed to settle for 24 hours before LMW-DS treatment.
# LMW-DS was provided at a stock concentration of 20 mg/ml and was kept in a temperature monitored refrigerator at 4° C. A fresh […]LMW-DS stock (1.0 mg/ml) was prepared in sterile DMEM-F12. The concentrated drug stock was sterile filtered and added to the respective culture media (19.6 ml CM and 0.4 ml LMW-DS stock solution). The Control was made using 19.6 ml CM and 0.4 ml of DMEM-F12. LMW-DS and CM were added to the respective flasks (5 ml each) to reach the 0.01 mg/ml concentration of LMW-DS in each dish with a total of 10 ml CM each.
# CM was aspirated into a clean and labelled 15 ml Falcon tube. The flasks (without culture medium) were placed into the −80° C. freezer for 30 minutes. The CM in the Falcon tubes were spun at 3000×g for 5 minutes. Supernatant was removed and the small pellet was re-suspended in 2.5 ml Trizol:Water (4:1) solution at room temperature (RT, […]).
# Two aliquots of 1 ml lysate was removed from each sample and 200 μl of chloroform was added to each (0.2 ml of chloroform per 1 ml of TRIzol Reagent used during the cell lysis step) and the tube was shaken vigorously. Samples were stored at RT for 2-3 minutes and subsequently centrifuged at 12,000×g for 15 minutes at 4° C.
# The expression data were downloaded into separate files for each cell line. The ‘Background corrected’ expression is the data from the “gProcessedSignal” of the arrays that is the result of the background signal extracted from the actual signal of the relevant probe. This is the most often used variable in array analysis. The background corrected signal was log 2 transformed for all samples for statistical analysis. To reduce the false discovery rate in the samples, the signals that were below ‘expression level’ were removed. The ‘below expression’ level was set at 5 for the log 2 transformed expression values.
# Based on the expression pattern of the Control probes on each array it was decided to carry out Median Centering for all arrays before analysis to reduce the variability of the results. […]
substance,measurement,setting,value
low molecular weight dextran sulfate [LMW-DS],MBP expression,[1]; 0.01 and 0.1 mg/ml,significantly increased
same,size of MBP-positive cells vs control,[1],larger
same,"aggregate effect on adhesion and angiogenesis (1 molecule, ADAM11)","[2]; 0.01 mg/ml, 48 h",adhesion would not be affected but angiogenesis would be activated
same,differential regulation of the 197 genes regulating cell attachment,"[2]; 0.01 mg/ml, 48 h",none are differentially regulated
same,modulation of the effects of oxidative stress on mitochondria,"[2]; 0.01 mg/ml, 48 h",no significant modulation
same,"number of genes differentially expressed, D0 control vs D2 LMW-DS treated","[2]; 0.01 mg/ml, 48 h",1779 genes
same,"number of genes differentially expressed, D2 control vs D2 LMW-DS treated","[2]; 0.01 mg/ml, 48 h",76 genes
same,number of genes: abolished nutrient effect / no effect,"[2]; 0.01 mg/ml, 48 h",67
same,number of genes: abolished nutrient effect / significant downregulation,"[2]; 0.01 mg/ml, 48 h",4
same,number of genes: abolished nutrient effect / significant upregulation,"[2]; 0.01 mg/ml, 48 h",11
same,number of genes: abolished nutrient effect / total,"[2]; 0.01 mg/ml, 48 h",82
same,number of genes: enhanced response to nutrients / significant downregulation,"[2]; 0.01 mg/ml, 48 h",120
same,number of genes: enhanced response to nutrients / significant upregulation,"[2]; 0.01 mg/ml, 48 h",229
same,number of genes: enhanced response to nutrients / total,"[2]; 0.01 mg/ml, 48 h",349
same,number of genes: not different from control / significant downregulation,"[2]; 0.01 mg/ml, 48 h",167
same,number of genes: not different from control / significant upregulation,"[2]; 0.01 mg/ml, 48 h",1326
same,number of genes: not different from control / total,"[2]; 0.01 mg/ml, 48 h",1493
same,number of genes: total / no effect,"[2]; 0.01 mg/ml, 48 h",67
same,number of genes: total / significant downregulation,"[2]; 0.01 mg/ml, 48 h",291
same,number of genes: total / significant upregulation,"[2]; 0.01 mg/ml, 48 h",1566
same,number of genes: total / total,"[2]; 0.01 mg/ml, 48 h",1924
same,upstream regulator HGF: activation z-score,[2]; D2 LMW-DS treatment,3.194
same,upstream regulator HGF: predicted activation state relative D2 control,[2]; D2 LMW-DS treatment,Activated relative to control
same,upstream regulator TGFβ1: activation z-score,[2]; D2 LMW-DS treatment,1.429
same,upstream regulator TGFβ1: predicted activation state relative D2 control,[2]; D2 LMW-DS treatment,Activated relative to control
same,upstream regulator VEGF: activation z-score,[2]; D2 LMW-DS treatment,3.432
same,upstream regulator VEGF: predicted activation state relative D2 control,[2]; D2 LMW-DS treatment,Activated relative to control
